Patent US9573961B2, “Inhibitors of the renal outer medullary potassium channel” (Merck Sharp & Dohme Corp., priority 2012, dated 2017)
Like-named read-outs stand apart in the source and are kept apart here.

Columns and labels:
Kir1.1 (ROMK1) = Kir1.1 (ROMK1) (Homo sapiens (Human), UniProt P48048); test: Electrophysiology Assay (whole cell voltage clamp, IonWorks Quattro); format: cell-based; conditions: block during voltage step to 0 mV
Experimental: Chinese hamster ovary cells stably expressing Kir1.1 channels were maintained in T-75 flasks in cell culture media in a humidified 10% CO2 incubator at 37° C. Prior to an experiment, Kir1.1 expression was induced by overnight incubation with 1 mM sodium butyrate. […] After centrifugation, the cell pellet was resuspended in approximately 4.0 mL of bath solution and placed in the IonWorks instrument. The intracellular solution consisted of (in mM): 80 K gluconate, 40 KCl, 20 KF, 3.2 MgCl2, 3 EGTA, 5 Hepes, pH 7.4. Electrical access to the cytoplasm was achieved by perforation in 0.13 mg/mL amphotericin B for 4 min. […] Voltage protocols and current recordings were performed using the IonWorks HT software/hardware system. Currents were sampled at 1 kHz. No correction for liquid junction potentials was used. The test pulse, consisting of a 100 ms step to 0 mV from a holding potential of −70 mV, followed by a 100 ms voltage ramp from −70 mV to +70 mV, was applied before and after a 6 min compound incubation period. Test compounds were prepared by diluting DMSO stock solutions into the bath solution at 3× the final concentration and placed in the instrument in 96-well polypropylene plates. Current amplitudes were measured using the IonWorks software.

hROMK (hKir1.1) = hROMK (hKir1.1) (Homo sapiens (Human), UniProt P48048); test: Thallium Flux Assay (ROMK channel functional thallium flux, FLIPR-Tetra); format: cell-based; conditions: read-out: Thallium Flux IC50
Chain of hROMK (hKir1.1) (P48048 whole entry): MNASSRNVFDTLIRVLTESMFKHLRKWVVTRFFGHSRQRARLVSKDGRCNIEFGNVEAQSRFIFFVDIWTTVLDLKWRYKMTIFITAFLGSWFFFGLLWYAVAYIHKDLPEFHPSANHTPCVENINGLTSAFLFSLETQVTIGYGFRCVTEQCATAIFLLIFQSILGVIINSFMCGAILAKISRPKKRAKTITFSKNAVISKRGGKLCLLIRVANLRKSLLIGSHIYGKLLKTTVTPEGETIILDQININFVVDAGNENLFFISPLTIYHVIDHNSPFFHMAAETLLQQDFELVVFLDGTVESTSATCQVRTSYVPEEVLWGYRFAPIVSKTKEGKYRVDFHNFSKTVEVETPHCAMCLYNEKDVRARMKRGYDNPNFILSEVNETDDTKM
Experimental: Cell Culture Conditions—HEK293 cells stably expressing hROMK (hKir1.1) were grown at 37° C. in a 10% CO2 humidified incubator in complete growth media: Dulbecco's Modified Eagle Medium supplemented with non-essential amino acids, Penicillin/Streptomycin/Glutamine, G418 and FBS. At >80% confluency, aspirate the media from the flask and rinse with 10 mL Calcium/Magnesium-free PBS. […] To dislodge the cell, gently bang the side of the flask with your hand. Triturate the cells completely and then transfer the cells to 25 mL complete media. Centrifuge at 1,500 rpm for 6 min followed by resuspension in complete growth media and determine cell concentration. […] Under ideal growth conditions and appropriate tissue culture practices, this cell line is stable for 40-45 passages.
FluxOR Kit Components (Invitrogen F10017) • FluxOR™ Reagent (Component A) • FluxOR™ Assay Buffer (Component B)—10× Concentrate • PowerLoad™ Concentrate (Component C)—100× Concentrate • Probenecid (Component D)—Lyophilized sample is kept at −20° C. Water soluble, 100× after solubilization in 1 mL water. […] Store at 4° C. • Thallium sulfate (Tl2SO4) Concentrate (Component G)—50 mM in water. Store at 4° C. • DMSO (dimethyl sulfoxide, Component H)—1 mL (100%)
Can be stored at room temperature • Stimulant Buffer (prepared at 5× final concentration in 1× FluxOR™ Chloride-Free Buffer): 7.5 mM Thallium sulfate and 0.75 mM Potassium sulfate (to give a final assay concentration of 3 mM Thallium/0.3 mM Potassium). Store at 4° C. when not in use. If kept sterile, this solution is good for months.
Assay Protocol—The ROMK channel functional thallium flux assay is performed in 384 wells, using the FLIPR-Tetra instrument. HEK-hKir1.1 cells are seeded in Poly-D-Lysine microplates and kept in a 37° C.-10% CO2 incubator overnight. On the day of the experiment, the growth media is replaced with the FluxOR™ reagent loading buffer and incubated, protected from light, at ambient temperature (23-25° C.) for 90 min. The loading buffer is replaced with assay buffer±test compound followed by 30 min incubation at ambient temperature, where the Thallium/Potassium stimulant is added to the microplate.
Step Protocol • 1. Seed HEK-hKir1.1 cells (50 μl at 20,000 cells/well) in 384-well PDL coated Microplates • 2. Allow cells to adhere overnight in humidified 37° C./10% CO2 incubator • 3. Completely remove cell growth media from microplate and replace with 25 μl loading buffer • 4. Incubate Microplate at room temperature, protected form light, for 90 min • 5. Remove loading buffer and replace with 25 μl 1× Assay Buffer±test compound. • 6. Incubate microplate at room temperature, protected from light, for 30 min • 7. […] Excitation=400 nm, Emission=460 & 580 nm. Collect data for ˜10 min.
Data Calculation—The fluorescence intensity of wells containing 3 μM of a standard control ROMK inhibitor of the present invention is used to define the ROMK-sensitive component of thallium flux. Fluorescence in the presence of test compounds is normalized to control values to provide % fluorescence change.

[1] = Chinese hamster ovary cells stably expressing Kir1.1, read-out: Electrophysiology IC50
[2] = HEK293 cells stably expressing hROMK (hKir1.1)
[3] = Electrophysiology IC50, Chinese hamster ovary cells stably expressing Kir1.1

Chain of Kir1.1 (ROMK1) (P48048 whole entry): as above

Row | Structure (SMILES) | IC50 (Kir1.1 (ROMK1); [1]) [nM] | IC50 (hROMK (hKir1.1); [2]) [nM] | IC50 (Kir1.1 (ROMK1); [3]) [nM] | IC50 (hROMK (hKir1.1)) [nM]
1 | COc1cc([C@H]2CN3CCN(C(=O)C4CCc5cc(-n6cnnn6)ccc54)C[C@H]3CO2)ccc1C#N (mixture of isomers) [Example 66, 2-methoxy-4-[(3S,9aS)-8-{[5-(1H-tetrazol-1-yl)-2,3-dihydro-1H-inden-1-yl]carbonyl}octahydropyrazino[2,1-c][1,4]oxazin-3-yl]benzonitrile] | 490 | 370 | – | –
2 | Cc1c([C@@H]2CN3CCN(C(=O)C4CCc5cc(-n6cnnn6)ccc54)C[C@H]3CO2)ccc(F)c1C#N (mixture of isomers) [Example 2A, 3-((3R,9aS)-8-(5-(1H-tetrazol-1-yl)-2,3-dihydro-1H-indene-1-carbonyl)octahydropyrazino[2,1-c][1,4]oxazin-3-yl)-6-fluoro-2-methylbenzonitrile] | 140 | 170 | – | –
3 | Cc1c([C@@H]2CN3CCN(C(=O)C4CCc5cc(-n6cnnn6)ccc54)C[C@H]3CO2)ccc(F)c1C#N (mixture of isomers) [Example 2B, 3-((3R,9aS)-8-(5-(1H-tetrazol-1-yl)-2,3-dihydro-1H-indene-1-carbonyl)octahydropyrazino[2,1-c][1,4]oxazin-3-yl)-6-fluoro-2-methylbenzonitrile] | 150 | 290 | – | –
4 | O=C(C1CCc2cc(-n3cnnn3)ccc21)N1CCN2C[C@@H](c3cccc(-n4cnnn4)c3)OC[C@@H]2C1 (single isomer, unassigned) [Example 80] | 280 | 130 | – | –
5 | Cc1c([C@H]2CN3CCN(C(=O)C4CCc5cc(-n6cnnn6)ccc54)C[C@H]3CO2)ccc2c1COC2=O (single isomer, unassigned) [Example 81] | 260 | 230 | – | –
6 | Cc1c([C@@H]2CN3CCN(C(=O)C4CCc5cc(-n6cnnn6)ccc54)C[C@H]3CO2)csc1C#N (single isomer, unassigned) [Example 82] | 110 | 330 | – | –
7 | Cc1c([C@@H]2CN3CCN(C(=O)C4CCc5cc(-n6cnnn6)ccc54)C[C@H]3CO2)csc1C#N (single isomer, unassigned) [Example 83] | 90 | 140 | – | –
8 | Cc1c([C@H]2CN3CCN(C(=O)C4CCCc5cc(-n6cnnn6)ccc54)C[C@H]3CO2)ccc2c1COC2=O (single isomer, unassigned) [Example 88] | 460 | 380 | – | –
9 | Cc1c([C@@H]2CN3CCN(C(=O)C4CCCc5cc(-n6cnnn6)ccc54)C[C@H]3CO2)ccc2c1COC2=O (single isomer, unassigned) [Example 89] | 460 | 490 | – | –
10 | O=C1OCCc2cc([C@@H]3CN4CCN(C(=O)C5CCCc6cc(-n7cnnn7)ccc65)C[C@H]4CO3)ccc21 (single isomer, unassigned) [Example 90] | 260 | 430 | – | –
11 | Cc1c([C@@H]2CN3CCN(C(=O)C4CCCc5cc(-n6cnnn6)ccc54)C[C@H]3CO2)csc1C#N (single isomer, unassigned) [Example 96] | 190 | 460 | – | –
12 | Cc1c([C@H]2CN3CCN(C(=O)C4CCCc5cc(-n6cnnn6)ccc54)C[C@H]3CO2)csc1C#N (single isomer, unassigned) [Example 97] | 280 | 620 | – | –
13 | Cc1c([C@H]2CN3CCN(C(=O)C4CCc5cc(-n6cnnn6)ccc54)C[C@H]3CO2)ccc(F)c1C#N (single isomer, unassigned) [Example 98] | 140 | 170 | – | –
14 | Cc1c([C@H]2CN3CCN(C(=O)CCc4cccc(-n5cnnn5)c4)CC3CO2)ccc(F)c1C#N (stereo in doubt) [Example 73, 6-fluoro-2-methyl-3-[(3S,9aS)-8-{3-[3-(1H-tetrazol-1-yl)phenyl]propanoyl}octahydropyrazino[2,1-c][1,4]oxazin-3-yl]benzonitrile] | – | 140 | – | –
15 | Cc1c([C@@H]2CN3CCN(C(=O)Cc4ccc(-n5cnnn5)cc4)C[C@H]3CO2)ccc2c1COC2=O [Example 1A, 4-methyl-5-[(3R,9aS)-8-{[4-(1H-tetrazol-1-yl)phenyl]acetyl}octahydropyrazino[2,1-c][1,4]oxazin-3-yl]-2-benzofuran-1(3H)-one] | – | 30 | 100 | –
16 | COc1cc(CC(=O)N2CCN3C[C@@H](c4ccc5c(c4)COC5=O)OC[C@@H]3C2)c(F)cc1C#N [Example 10, 5-fluoro-2-methoxy-4-{2-oxo-2-[(3R,9aS)-3-(1-oxo-1,3-dihydro-2-benzofuran-5-yl)hexahydropyrazino[2,1-c][1,4]oxazin-8(1H)-yl]ethyl}benzonitrile] | – | 130 | 90 | –
17 | Cc1c([C@@H]2CN3CCN(C(=O)Cc4ccc(-n5cnnn5)cc4)C[C@@H]3CO2)ccc2c1COC2=O [Example 13, 4-methyl-5-[(3R,9aR)-8-{[4-(1H-tetrazol-1-yl)phenyl]acetyl}octahydropyrazino[2,1-c][1,4]oxazin-3-yl]-2-benzofuran-1(3H)-one] | – | 120 | 150 | –
18 | Cc1c([C@H]2CN3CCN(C(=O)Cc4ccc(-n5cnnn5)cc4)C[C@@H]3CO2)ccc2c1COC2=O [Example 14, 4-methyl-5-[(3S,9aR)-8-{[4-(1H-tetrazol-1-yl)phenyl]acetyl}octahydropyrazino[2,1-c][1,4]oxazin-3-yl]-2-benzofuran-1(3H)-one] | – | 110 | 140 | –
19 | O=C1OCCc2cc([C@@H]3CN4CCN(C(=O)Cc5ccc(-n6cnnn6)cc5)C[C@H]4CO3)ccc21 [Example 15, 6-[(3R,9aS)-8-{[4-(1H-tetrazol-1-yl)phenyl]acetyl}octahydropyrazino[2,1-c][1,4]oxazin-3-yl]-3,4-dihydro-1H-isochromen-1-one] | 80 | – | – | 50
20 | Cc1c([C@H]2CN3CCN(C(=O)CCc4cccc(-n5cnnn5)c4)C[C@H]3CO2)ccc2c1COC2=O [Example 71, 4-methyl-5-[(3S,9aS)-8-{3-[3-(1H-tetrazol-1-yl)phenyl]propanoyl}octahydropyrazino[2,1-c][1,4]oxazin-3-yl]-2-benzofuran-1(3H)-one] | – | 490 | – | –
21 | Cc1c([C@@H]2CN3CCN(C(=O)CCc4cccc(-n5cnnn5)c4)C[C@H]3CO2)ccc(F)c1C#N [Example 72, 6-fluoro-2-methyl-3-[(3R,9aS)-8-{3-[3-(1H-tetrazol-1-yl)phenyl]propanoyl}octahydropyrazino[2,1-c][1,4]oxazin-3-yl]benzonitrile] | – | 270 | – | –
22 | Cc1c([C@H]2CN3CCN(C(=O)C4Cc5ccc(-n6cnnn6)cc5C4)C[C@H]3CO2)ccc(F)c1C#N (stereo partly drawn) [Example 74, 6-fluoro-2-methyl-3-[(3S,9aS)-8-{[5-(1H-tetrazol-1-yl)-2,3-dihydro-1H-inden-2-yl]carbonyl}octahydropyrazino[2,1-c][1,4]oxazin-3-yl]benzonitrile] | 160 | – | – | –
